According to patent US20230159467A1, “NOVEL COMPOUNDS USEFUL IN THE TREATMENT AND/OR PREVENTION OF A DISEASE, DISORDER OR CONDITION ASSOCIATED WITH ANGIOTENSIN II” (Vicore Pharma AB, priority 2020, published 2023):
Like-named read-outs stand apart in the source and are kept apart here.

Key:
[1] = Stability in human liver microsomes; assay type: in vitro ADME; details: half-life
Experimental: (§1) Stability in liver microsomes. Human, mouse and rat liver microsomes were used to assess the metabolic stability for the compounds. Metabolic stability was determined in 0.5 mg/mL human, mouse or rat liver microsomes at a compound concentration of 1 μM in 100 mM potassium phosphate buffer (pH 7.4) in a total incubation volume of 500 μL by Eurofins. The assay matrix was: human liver microsomes: mixed gender and pool of 50, rat liver microsomes: male, Sprague-Dawley, pool of 100 or more and mouse liver microsomes: male,CD-1, pool of 250 or more. Final microsomal protein concentration: 0.1mg/mL. The test concentration was 0.1 μM with 0.01% DMSO, 0.25% acetonitrile and 0.25% methanol by default. […] The reaction was initiated by adding NADPH-generating system and was incubated for 0, 15, 30, 45, and 60 min. The reaction was stopped by transferring the incubation mixture to acetonitrile/methanol. Samples were then mixed and centrifuged. Four reference compounds were tested in each assay. Propranolol and imipramine are relatively stable, whereas verapamil and terfenadine are readily metabolized inhuman liver microsomes. Samples were analyzed by HPLC-MS/MS using selected reaction monitoring. The HPLC system consisted of a binary LC pump with autosampler, a C-18 column, and a gradient. Peak areas corresponding to the test compound were recorded. The compound remaining was calculated by comparing the peak area at each time point to time zero. The half-life was calculated from the slope of the initial linear range of the logarithmic curve of compound remaining (%) vs. time, assuming first order kinetics. In addition, the intrinsic clearance (Clint) was calculated.^19,20

[2] = Stability in mouse liver microsomes; assay type: in vitro ADME; details: half-life
Experimental: as §1

[3] = Stability in rat liver microsomes; assay type: in vitro ADME; details: half-life
Experimental: as §1

[4] = Kinetic solubility in PBS pH 7.4; assay type: physicochemical; details: Dulbecco's PBS buffer, aqueous buffer, kinetic from dmso stock; PBS pH 7.4, 24 h room temperature, 2% DMSO
Experimental: Kinetic solubility. Dulbecco's PBS buffer was used (NaCl 137 mM, KCl 2.7 mM, Na2HPO4 8.1 mM, KH2PO4 1.5 mM with pH 7.4). The test compound is prepared at 200 μM in the PBS buffer from a 10 mM DMSO stock solution. The final DMSO concentration is 2%. The buffer samples were mixed thoroughly followed by incubation at room temperature for 24 h. At the end of the incubation, the buffer samples were centrifuged and supernatants were then injected for the HPLC analysis. A calibration standard of the test compound was prepared at 200 μM in methanol/water (3/2, v/v) from a 10 mM DMSO stock solution on the day of HPLC analysis. The analysis was conducted by HPLC-UV/VIS with photodiode array detection, with monitoring at 205, 230, 260, and 300 nm wavelengths. The HPLC system consisted of a C18 column using a gradient of A and B (A=12 mM ammonium formate, 6 mM formic acid in water, pH 4.0, B=6 mM ammonium formate, 3 mM formic acid acetonitrile/water (9/1, v/v)). Reference compounds used were metoprolol, rifampicin, ketoconazole, phenytoin, haloperidol, simvastatin, diethylstilbestrol, and tamoxifen, ranking from fully soluble (200 μM) to poorly soluble (<1μM). […] The range of the assay was approximately 0.5 μM to 200 μM. The chromatographic purity (%) was determined as the peak area of the principal peak relative to the total integrated peak areas in the HPLC chromatogram of the calibration standard.

CYP2B6 = target: T1, CYP2B6 (Homo sapiens, UniProt P20813); test: CYP450 inhibition assay, pooled human liver microsomes, bupropion substrate; details: for inhibition at 10 min, 10 µM: both, human, pooled human liver microsomes, pH 7.4, probe bupropion
T1 sequence (P20813 1-491): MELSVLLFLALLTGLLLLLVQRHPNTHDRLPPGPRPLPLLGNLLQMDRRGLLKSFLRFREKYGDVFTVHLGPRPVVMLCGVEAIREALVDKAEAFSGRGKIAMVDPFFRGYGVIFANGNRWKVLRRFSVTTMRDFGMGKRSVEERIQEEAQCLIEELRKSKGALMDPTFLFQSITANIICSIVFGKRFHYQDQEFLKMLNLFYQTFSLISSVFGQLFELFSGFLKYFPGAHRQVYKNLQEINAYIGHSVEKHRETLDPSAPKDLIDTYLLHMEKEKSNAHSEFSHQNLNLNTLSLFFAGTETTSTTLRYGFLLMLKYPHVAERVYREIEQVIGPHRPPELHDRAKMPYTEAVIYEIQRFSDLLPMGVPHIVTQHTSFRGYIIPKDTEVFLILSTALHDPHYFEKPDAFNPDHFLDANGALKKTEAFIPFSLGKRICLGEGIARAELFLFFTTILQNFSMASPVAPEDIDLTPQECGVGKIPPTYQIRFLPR

CYP3A [5] = test: CYP450 inhibition assay, pooled human liver microsomes, midazolam substrate; details: for inhibition at 10 min, 10 µM: both, human, pooled human liver microsomes, pH 7.4, probe midazolam
CYP1A = target: T2, CYP1A (Homo sapiens, UniProt P05177); test: CYP450 inhibition assay, pooled human liver microsomes, phenacetin substrate; details: for inhibition at 10 min, 10 µM: both, human, pooled human liver microsomes, pH 7.4, probe phenacetin
T2 sequence (P05177 1-516): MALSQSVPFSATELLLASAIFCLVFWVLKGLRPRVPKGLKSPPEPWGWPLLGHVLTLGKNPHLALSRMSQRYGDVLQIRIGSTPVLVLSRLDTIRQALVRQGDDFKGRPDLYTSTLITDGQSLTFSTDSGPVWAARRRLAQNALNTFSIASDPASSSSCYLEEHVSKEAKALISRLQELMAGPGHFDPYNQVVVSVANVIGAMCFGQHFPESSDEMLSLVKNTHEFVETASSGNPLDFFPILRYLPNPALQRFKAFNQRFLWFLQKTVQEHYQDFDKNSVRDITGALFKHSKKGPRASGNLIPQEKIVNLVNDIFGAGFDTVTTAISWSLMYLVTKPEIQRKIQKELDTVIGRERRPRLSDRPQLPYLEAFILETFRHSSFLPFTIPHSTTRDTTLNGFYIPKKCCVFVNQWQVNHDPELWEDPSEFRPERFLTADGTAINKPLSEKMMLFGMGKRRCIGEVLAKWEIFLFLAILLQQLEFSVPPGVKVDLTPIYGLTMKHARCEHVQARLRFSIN

CYP2C9 = CYP2C9 (Homo sapiens, UniProt P11712); test: CYP450 inhibition assay, pooled human liver microsomes, diclofenac substrate; details: both, human, pooled human liver microsomes, pH 7.4, probe diclofenac
CYP2C19 [6] = target: T3, CYP2C19 (Homo sapiens, UniProt P33261); test: CYP450 inhibition assay, pooled human liver microsomes, omeprazole substrate; details: both, human, pooled human liver microsomes, pH 7.4, probe omeprazole
CYP2C8 = target: T4, CYP2C8 (Homo sapiens, UniProt P10632); test: CYP450 inhibition assay, pooled human liver microsomes, amodiaquine substrate; details: for inhibition at 10 min, 10 µM: both, human, pooled human liver microsomes, pH 7.4, probe amodiaquine
T4 sequence (P10632 1-490): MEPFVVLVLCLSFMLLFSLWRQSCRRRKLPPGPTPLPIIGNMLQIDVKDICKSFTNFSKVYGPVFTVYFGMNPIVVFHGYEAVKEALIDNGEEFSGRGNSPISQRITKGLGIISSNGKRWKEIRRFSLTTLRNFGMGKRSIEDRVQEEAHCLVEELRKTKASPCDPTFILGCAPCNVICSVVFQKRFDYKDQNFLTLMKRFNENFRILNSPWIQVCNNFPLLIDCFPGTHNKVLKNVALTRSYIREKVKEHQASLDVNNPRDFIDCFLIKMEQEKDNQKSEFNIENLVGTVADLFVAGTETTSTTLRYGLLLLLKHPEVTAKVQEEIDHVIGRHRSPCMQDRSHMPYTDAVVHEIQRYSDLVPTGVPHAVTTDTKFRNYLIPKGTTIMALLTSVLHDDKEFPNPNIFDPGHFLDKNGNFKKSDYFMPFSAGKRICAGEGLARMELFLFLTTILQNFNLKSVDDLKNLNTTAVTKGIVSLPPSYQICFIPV

CYP3A [7] = test: CYP450 inhibition assay, pooled human liver microsomes, testosterone substrate; details: at 10 μM; for inhibition at 10 min, 10 µM: both, human, pooled human liver microsomes, pH 7.4, probe testosterone, CYP 450 Inhibition CYP3A testosterone
Experimental: The compound was tested at a single concentration (10 μM) with 0.1% DMSO. […] The reaction was initiated by adding a NADPH-generating system. The reaction was allowed for 10 min and stopped by transferring the reaction mixture to acetonitrile/methanol. Samples were mixed and centrifuged. Supernatants were used for HPLC-MS/MS of the respective metabolite. The activity of human cytochrome P450 (CYP) enzymes were determined by following the formation of a metabolite of the probe substrate. The following enzymes were evaluated for inhibition using the listed reference substrates and reference inhibitors:
CYP1A—phenacetin (reference inhibitor furafylline), CYP2B6—bupropion (reference inhibitor clopidogre), CYP2C8-amodiaquine (reference inhibitor montelukast), CYP2C9—diclofenac (reference inhibitor sulfaphenazole), CYP2C19—omeprazole (reference inhibitor oxybutynin), CYP2D6—dextromethorphan (reference inhibitor quinidine), CYP3A—midazolam (reference inhibitor ketoconazol) and CYP3A—testosterone (reference inhibitor ketoconazol). The reference inhibitors were tested in each assay at multiple concentrations to obtain an IC50 value. Peak areas corresponding to the metabolite were recorded. The percent of control activity was calculated by comparing the peak area in the presence of the test compound to the control samples containing the same solvent. Subsequently, the percent inhibition was calculated by subtracting the percent control activity from 100. The IC50 value (concentration causing a half-maximal inhibition of the control value) was determined by non-linear regression analysis of the concentration-response curve using the Hill equation.

CYP2D6 [8] = target: T5, CYP2D6 (Homo sapiens, UniProt P10635); test: CYP450 inhibition assay, pooled human liver microsomes, dextromethorphan substrate; details: for inhibition at 10 min, 10 µM: both, human, pooled human liver microsomes, pH 7.4, probe dextromethorphan
CYP2C19 [9] = target: T3, CYP2C19; details: at 10 μM; from Bioorg. Med. Chem. 2010, 18 (12), 4570-4590; cited from earlier work
CYP2D6 [10] = target: T5, CYP2D6; details: at 10 μM; from Bioorg. Med. Chem. 2010, 18 (12), 4570-4590; cited from earlier work
CYP3A [11] = details: at 10 μM; midazolam substrate; from Bioorg. Med. Chem. 2010, 18 (12), 4570-4590; cited from earlier work

T5 sequence (P10635 whole entry): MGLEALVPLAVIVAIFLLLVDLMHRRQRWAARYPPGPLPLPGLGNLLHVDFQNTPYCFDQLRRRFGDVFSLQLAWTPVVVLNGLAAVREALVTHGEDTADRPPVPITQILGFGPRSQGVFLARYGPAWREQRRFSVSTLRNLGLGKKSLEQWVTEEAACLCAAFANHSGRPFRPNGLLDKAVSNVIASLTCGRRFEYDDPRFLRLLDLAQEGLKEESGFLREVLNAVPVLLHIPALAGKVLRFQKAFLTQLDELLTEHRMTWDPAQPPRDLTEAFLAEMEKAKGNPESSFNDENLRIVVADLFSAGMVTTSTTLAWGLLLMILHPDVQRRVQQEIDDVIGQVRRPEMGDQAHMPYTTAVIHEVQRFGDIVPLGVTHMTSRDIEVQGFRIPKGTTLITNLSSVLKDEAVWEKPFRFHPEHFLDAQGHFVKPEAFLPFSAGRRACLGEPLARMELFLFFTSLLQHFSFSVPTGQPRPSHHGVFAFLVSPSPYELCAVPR
T3 sequence (P33261 whole entry): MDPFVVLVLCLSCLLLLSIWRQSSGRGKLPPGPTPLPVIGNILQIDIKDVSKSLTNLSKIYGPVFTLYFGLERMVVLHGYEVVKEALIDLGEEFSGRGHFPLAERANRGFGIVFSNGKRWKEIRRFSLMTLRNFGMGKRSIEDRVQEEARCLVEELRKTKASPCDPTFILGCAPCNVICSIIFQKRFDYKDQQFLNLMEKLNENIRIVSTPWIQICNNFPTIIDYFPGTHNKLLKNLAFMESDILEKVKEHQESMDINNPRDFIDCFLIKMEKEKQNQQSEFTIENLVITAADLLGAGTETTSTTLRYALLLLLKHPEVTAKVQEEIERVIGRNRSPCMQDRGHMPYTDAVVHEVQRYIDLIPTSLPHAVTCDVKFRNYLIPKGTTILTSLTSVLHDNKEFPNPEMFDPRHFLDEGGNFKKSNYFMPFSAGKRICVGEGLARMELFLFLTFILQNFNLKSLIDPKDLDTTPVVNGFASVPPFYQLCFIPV
Sequence of CYP2C9 (P11712 whole entry): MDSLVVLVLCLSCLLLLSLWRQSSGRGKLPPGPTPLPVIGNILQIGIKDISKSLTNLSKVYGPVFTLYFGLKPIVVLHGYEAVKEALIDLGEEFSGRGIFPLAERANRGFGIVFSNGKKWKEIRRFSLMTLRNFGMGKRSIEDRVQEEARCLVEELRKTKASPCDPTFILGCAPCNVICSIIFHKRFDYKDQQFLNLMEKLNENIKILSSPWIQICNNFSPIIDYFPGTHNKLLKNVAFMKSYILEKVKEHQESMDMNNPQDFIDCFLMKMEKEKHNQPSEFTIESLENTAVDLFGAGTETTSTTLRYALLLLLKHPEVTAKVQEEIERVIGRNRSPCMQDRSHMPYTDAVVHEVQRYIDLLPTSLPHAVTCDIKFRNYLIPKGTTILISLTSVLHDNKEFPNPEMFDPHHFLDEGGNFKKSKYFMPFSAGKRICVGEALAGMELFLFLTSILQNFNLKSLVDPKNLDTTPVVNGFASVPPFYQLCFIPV

SMILES | Stability in liver microsomes HLM [1] | Stability in liver microsomes MLM [2] | Stability in liver microsomes RLM [3] | solubility kinetic at 24 h [4] | inhibition at 10 min, 10 µM (CYP2B6) | inhibition at 10 min, 10 µM (CYP3A [5]) | inhibition at 10 min, 10 µM (CYP1A) | inhibition at 10 min, 10 µM (CYP2C9) | inhibition at 10 min, 10 µM (CYP2C19 [6]) | inhibition at 10 min, 10 µM (CYP2C8) | inhibition at 10 min, 10 µM (CYP3A [7]) | inhibition at 10 min, 10 µM (CYP2D6 [8]) | other results
COC(=O)[N-]S(=O)(=O)c1sc(CC(C)C)cc1-c1ccc(Cn2ccnc2C(C)(C)C)cc1.[K+] [Example 12B, Potassium ((3-(4-((2-(tert-butyl)-1H-imidazol-1-yl)methyl)phenyl)-5-isobutylthiophen-2-yl)sulfonyl)(methoxycarbonyl)amide] | >60 min | 39 min | >60 min | > 200 µM | 25% | -11.6% | 8.3% | 29% | 36% | 73% | 6.8% | 1.6% | 
CCCCOC(=O)NS(=O)(=O)c1sc(CC(C)C)cc1-c1ccc(Cn2ccnc2)cc1 [Example C21, butyl ((3-(4-((1H-imidazol-1-yl)methyl)phenyl)-5-isobutylthiophen-2-yl)sulfonyl)carbamate] |  |  |  |  |  |  |  |  |  |  |  |  | CYP 450 Inhibition CYP2C19 (CYP2C19 [9]): 67%; CYP 450 Inhibition CYP2D6 (CYP2D6 [10]): 41%; CYP 450 Inhibition CYP3A midazolam (CYP3A [11]): 82%
CCCCOC(=O)[N-]S(=O)(=O)c1sc(CC(C)C)cc1-c1ccc(Cn2ccnc2)cc1.[Na+] [Example 13, Sodium ((3-(4-((1H-imidazol-1-yl)methyl)phenyl)-5-isobutylthiophen-2-yl)sulfonyl)(butoxycarbonyl)amide, reference compound] | 36 min | 39 min | 20 min | 198 µM | 53% |  | 77% |  | 93% | 69% | 84% |  | CYP 450 Inhibition CYP2B6 (CYP2B6; at 10 μM): 63%; CYP 450 Inhibition CYP3A midazolam (CYP3A [5]; at 10 μM, midazolam substrate): 93%; CYP 450 Inhibition CYP1A (CYP1A; at 10 μM): 89%; CYP 450 Inhibition CYP2C8 (CYP2C8; at 10 μM): 82%; CYP 450 Inhibition CYP3A testosterone (CYP3A [7]): 90%; CYP 450 Inhibition CYP2D6 (CYP2D6 [8]; at 10 μM): 90%
CCCCOC(=O)[N-]S(=O)(=O)c1ccc(CC(C)C)cc1-c1ccc(Cn2ccnc2C(C)(C)O)cc1.[K+] [Example 7B, Potassium (butoxycarbonyl)((4′-((2-(2-hydroxypropan-2-yl)-1H-imidazol-1-yl)methyl)-5-isobutyl-[1,1′-biphenyl]-2-yl)sulfonyl)amide] | 28 min | 20 min | 22 min | > 200 µM | 40% | -10.7% | -50% | 74% | 52% | 68% | 3.1% | 16% | 
CCCCOC(=O)[N-]S(=O)(=O)c1ccc(CC(C)C)cc1-c1ccc(Cn2ccnc2C(C)(C)C)cc1.[K+] [Example 2B, Potassium ((4′-((2-(tert-butyl)-1H-imidazol-1-yl)methyl)-5-isobutyl-[1,1′-biphenyl]-2-yl)sulfonyl)(butoxycarbonyl)amide] | 11 min | 10 min | 8 min | 183 µM | 57% | 16% | 4.5% | 91% | 71% | 81% | 27% | 15% | 
